In patent publication US6339146B1, “Cycloalkylated beta-glucoside” (Nikon Shokuhin Kako Co., Ltd., priority 1999, dated 2002):

Experiments:
[1] = molecular target: β-glucosidase derived from Trichoderma viride (Trichoderma viride, UniProt Q6UJY0); assay: β-Glucosidase inhibition test (pNP-β-Glc hydrolysis); type: biochemical; settings: T. viride enzyme
Experimental: (§1) β-Glucosidase inhibition test was performed as follows. 10 mM p-nitrophenyl-β-glucoside (100 μl, abbreviated as pNP-β-Glc hereinafter), 1 M sodium acetate buffer (pH 5.0, 50 μl), pure water, and 100 mM inhibitor (10 μl) were taken into a short test tube so that the mixture should have a total volume of […], and preincubated at 40° C. for 5 minutes. After the incubation, the obtained mixture was added with 50 μl of enzyme solution diluted to a suitable concentration, and allowed to react at 40° C. After 10 minutes, the enzyme was inactivated by adding 500 μl of 1 M sodium carbonate to the obtained reaction mixture, and the absorbance at 405 nm was measured and used for calculation of the amount of free p-nitrophenol. As the inhibitor, cyclopropylmethyl-β-glucoside (CPAM-β-Glc), cyclopentyl-β-glucoside (CPE-β-Glc), and cyclopentylmethyl-β-glucoside (CPEM-β-Glc) all prepared by the methods of Examples 1 and 2were used. As the β-glucosidase, chromatographically purified preparations derived from Aspergillus niger, Trichoderma viride, and Almond (all from SIGMA) were used.

[2] = system: β-glucosidase derived from Almond; assay: as above; type: biochemical; settings: for Activity ratio (pNP-β-glucosidase activity): Almond enzyme, cycloalkyl glucoside 1 mM (table title), no inhibitor = 1.00, pH 5.0, 40° C., 10 minutes
Experimental: as §1

[3] = molecular target: β-glucosidase derived from Aspergillus niger (Aspergillus niger, UniProt A2RAL4); assay: as above; type: biochemical; settings: for Activity ratio (pNP-β-glucosidase activity): cycloalkyl glucoside 1 mM (table title), no inhibitor = 1.00, pH 5.0, 40° C., 10 minutes
Experimental: as §1

[4] = system: chrysanthemum cut flowers; assay: Aromatic substance formation inhibition effect in cut flowers (organoleptic test); type: in vivo; settings: 0.13% (w/v, 5 mM) aqueous solution
Experimental: (§2) A 0.13% (w/v, 5 mM) aqueous solution of the CPEM-β-Glc obtained in Example 2 was prepared. The obtained aqueous solution (300 ml) was introduced into an Erlenmeyer flask, and lily, chrysanthemum, and gypsophila were put into it one for each. On the other hand, as control, the flowers were similarly put into water without the CPEM-β-Glc. After 1, 2 and 4 days, organoleptic test was performed by ten expert panelists as for the aroma emitted from these cut flowers.

[5] = system: lily cut flowers; assay: as above; type: in vivo; settings: 0.13% (w/v, 5 mM) aqueous solution
Experimental: as §2

[6] = system: gypsophila cut flowers; assay: as above; type: in vivo; settings: 0.13% (w/v, 5 mM) aqueous solution
Experimental: as §2

[7] = system: rose petal crude enzyme solution (pNP-β-Glc activity); assay: Inhibition test for rose crude enzyme (pNP-β-Glc activity); type: biochemical, Rosa gybrida CV. Wendy
Experimental: as §1
Only petals (about 70 g) were collected from about ten marketed roses (variety; Rosa gybrida CV. Wendy), added with acetone (500 ml) cooled to −20° C., and pulverized by a homogenizer while cooled with dry ice. The obtained pulverized mixture was filtered through a Buchner funnel put with a No. 2 filter paper sheet, and sufficiently washed with acetone at −20° C. The obtained filtrate was dried in a desiccator under reduced pressure (room temperature, 3 hours) to obtain 6 g of crude enzyme powder. This powder was added to 100 mM sodium phosphate buffer (pH 7.0, 120 ml) and stirred at 4° C. for 3 hours, and the insoluble matter was removed by centrifugation. The filtrate was subjected to ultrafiltration utilizing an ultrafiltration membrane PM-10 (Amicon) to finally afford 15 ml of crude enzyme solution.
In the same manner as in Example 3, the inhibition activity of the CPEM-β-Glc obtained in Example 2 for the pNP-β-Glc activity of the above crude enzyme solution was measured. […]

[8] = cycloalkyl glucoside 1 mM (table title), no inhibitor = 1.00, pH 5.0, 40° C., 10 minutes

SMILES	Activity ratio (pNP-β-glucosidase activity) [1, 8]	Activity ratio (pNP-β-glucosidase activity) [2]	Activity ratio (pNP-β-glucosidase activity) ([3]; A. niger enzyme)	Freshness of the cut flowers ([4]; added versus not added)	Aroma emitted from cut flowers (organoleptic test, ten expert panelists) ([4]; after one day, versus water)	Freshness of the cut flowers ([5]; added versus not added)	Aroma emitted from cut flowers (organoleptic test, ten expert panelists) ([5]; after one day, versus water)	Freshness of the cut flowers ([6]; added versus not added)	Aroma emitted from cut flowers (organoleptic test, ten expert panelists) ([6]; after one day, versus water)	Inhibition activity for pNP-β-Glc activity of rose crude enzyme ([7]; at 3 mM)	Inhibition activity for pNP-β-Glc activity of rose crude enzyme ([7]; at 4 mM)	Inhibition activity for pNP-β-Glc activity of rose crude enzyme ([7]; at 5 mM)	activity at 1000 µM ([1]; 10 min, cycloalkyl glucoside 1 mM (table title), no inhibitor = 1.00, pH 5.0, 40° C., 10 minutes, read-out: Activity ratio (pNP-β-glucosidase activity))	Inhibition of β-glucosidase (in words) ([1]; inhibitor concentration of 1.25 mM)	Inhibition of β-glucosidase (in words) ([2]; almond enzyme, inhibitor concentration of 1.25 mM)	Difference in 50% inhibition concentration, almond versus A. niger and T. viride β-glucosidases ([2]; ratio of 50% inhibition concentrations)	IC50 ([2]; β-glucosidase derived from almond, concentration varied from 0 to 5 mM, read-out: 50% inhibition concentration)	activity at 1000 µM ([3]; 10 min, pH 5, read-out: Activity ratio (pNP-β-glucosidase activity))	Inhibition of β-glucosidase (in words) ([3]; A. niger enzyme, inhibitor concentration of 1.25 mM)
OC[C@H]1O[C@@H](OCC2CC2)[C@H](O)[C@@H](O)[C@@H]1O [CPAM-β-Glc, cyclopropylmethyl-β-glucoside]	1.01	0.86	0.94																
OC[C@H]1O[C@@H](OC2CCCC2)[C@H](O)[C@@H](O)[C@@H]1O [CPE-β-Glc, cyclopentyl-β-glucoside]	1.06	0.90	0.92																
OCC1OC(OCC2CCCC2)C(O)C(O)C1O (stereo not drawn) [CPEM-β-Glc, cyclopentylmethyl-β-glucoside]		0.27		No difference	distinctly reduced	No difference	distinctly reduced	No difference	distinctly reduced	about 50%	about 70%	about 90%	105%	no inhibition	strongly inhibited	about 70 times	170 µM	99%	relatively weak inhibition
